Data published in patent publication US7495011B2 (priority 2003, dated 2009).

Tests used:
[1] = system: SARS virus; experiment: microbe, parasite or virus in culture; type: cell-based, SARS-associated coronavirus; conditions: Severe acute respiratory syndrome coronavirus, Vero, read-out: EC50 (concentration required to inhibit cytopathic effects by viral infection to 50% of the control value)
[2] = in vitro; conditions: African green monkey
[3] = system: SARS virus; conditions: background art; cited from earlier work
[4] = system: SARS virus; type: cell-based, SARS-associated coronavirus; conditions: 10 μM, FIG. 1E
[5] = system: SARS virus; type: cell-based, SARS-associated coronavirus; conditions: 10 μM, Vero cells, FIG. 1D
[6] = system: SARS virus; type: cell-based, SARS-associated coronavirus; conditions: 10 μM, FIG. 1B

In the case of `CC1(C)[C@@H](O[C@H]2O[C@H](C(=O)O)[C@@H](O)[C@H](O)[C@H]2O[C@@H]2O[C@H](C(=O)O)[C@@H](O)[C@H](O)[C@H]2O)CC[C@]2(C)[C@H]3C(=O)C=C4[C@@H]5C[C@@](C)(C(=O)O)CC[C@]5(C)CC[C@@]4(C)[C@]3(C)CC[C@@H]12` [Glycyrrhizin, glycyrrhizin], the EC50 [1] is listed as 364 µM, the CC50 [2] is listed as greater than 24300 µM and the “Efficacy against the SARS virus as reported in the literature” value [3] is listed as “extremely limited potency”.
In the case of `Cc1c(O)cccc1C(=O)N[C@@H](CSc1ccccc1)[C@H](O)CN1C[C@H]2CCCC[C@H]2C[C@H]1C(=O)NC(C)(C)C` [Nelfinavir, nelfinavir], the EC50 [1] is reported as 0.0484 µM, the “RNA levels of the SARS virus in Vero cells (RT-PCR)” value [4] is reported as “highly inhibitive against the propagation of the SARS virus” and the CC50 [2] is reported as 14.6 µM. For the same compound, the “SARS virus infection by immunofluorescence antibody staining” value [5] was “advantageously controlled” and the “Morphology of SARS virus-infected Vero cells” value [6] was “had the same morphology as normal cells”.
